Measured values reported in ChEMBL document CHEMBL4507281, “Data for DCP probe BI-4394” (2021).

Key:
[1] = target: Sodium-dependent serotonin transporter (Homo sapiens) (UniProt P31645); conditions: Compound concentration 10.0 uM
[2] = target: Serine/threonine-protein kinase/endoribonuclease IRE1 (Homo sapiens) (UniProt O75460); conditions: Compound concentration 100.0 nM
[3] = target: Ephrin type-A receptor 4 (Homo sapiens) (UniProt P54764); conditions: Compound concentration 100.0 nM
[4] = target: Proto-oncogene tyrosine-protein kinase ROS (Homo sapiens) (UniProt P08922); conditions: Compound concentration 100.0 nM
[5] = target: Peripheral plasma membrane protein CASK (Homo sapiens) (UniProt O14936); conditions: Compound concentration 100.0 nM
[6] = target: Serine/threonine-protein kinase OSR1 (Homo sapiens) (UniProt O95747); conditions: Compound concentration 100.0 nM
[7] = target: Ephrin type-B receptor 2 (Homo sapiens) (UniProt P29323); conditions: Compound concentration 100.0 nM
[8] = target: Cyclin-dependent kinase 18 (Homo sapiens) (UniProt Q07002); conditions: Compound concentration 100.0 nM
[9] = target: Dual specificity mitogen-activated protein kinase kinase 1 (Homo sapiens) (UniProt Q02750); conditions: Compound concentration 100.0 nM
[10] = target: Serine/threonine-protein kinase SBK1 (Homo sapiens) (UniProt Q52WX2); conditions: Compound concentration 100.0 nM
[11] = target: Serine/threonine-protein kinase 32A (Homo sapiens) (UniProt Q8WU08); conditions: Compound concentration 100.0 nM
[12] = target: Mitogen-activated protein kinase kinase kinase 15 (Homo sapiens) (UniProt Q6ZN16); conditions: Compound concentration 100.0 nM
[13] = target: Serine/threonine-protein kinase N1 (Homo sapiens) (UniProt Q16512); conditions: Compound concentration 100.0 nM
[14] = target: Cyclin-dependent kinase 4 (Homo sapiens) (UniProt P11802); conditions: Compound concentration 100.0 nM
[15] = target: Phosphatidylinositol 4-phosphate 5-kinase type-1 alpha (Homo sapiens) (UniProt Q99755); conditions: Compound concentration 100.0 nM
[16] = target: T1, Interleukin-1 receptor-associated kinase 4 (Homo sapiens) (UniProt Q9NWZ3); conditions: Compound concentration 100.0 nM
T1 sequence (whole entry): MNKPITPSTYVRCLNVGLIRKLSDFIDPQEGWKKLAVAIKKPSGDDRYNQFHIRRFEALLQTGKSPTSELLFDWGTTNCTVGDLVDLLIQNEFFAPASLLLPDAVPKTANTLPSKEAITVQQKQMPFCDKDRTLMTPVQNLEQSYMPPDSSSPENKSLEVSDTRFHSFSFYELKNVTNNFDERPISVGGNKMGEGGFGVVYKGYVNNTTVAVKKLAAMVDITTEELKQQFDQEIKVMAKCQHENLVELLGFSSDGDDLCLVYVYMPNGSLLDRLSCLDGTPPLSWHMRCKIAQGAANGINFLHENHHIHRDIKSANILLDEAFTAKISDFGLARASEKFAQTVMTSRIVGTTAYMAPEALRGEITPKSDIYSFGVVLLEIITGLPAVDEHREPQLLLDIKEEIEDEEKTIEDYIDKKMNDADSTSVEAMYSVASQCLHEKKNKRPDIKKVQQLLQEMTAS

[17] = target: Ribosomal protein S6 kinase alpha-5 (Homo sapiens) (UniProt O75582); conditions: Compound concentration 100.0 nM
[18] = target: Mitogen-activated protein kinase 1 (Homo sapiens) (UniProt P28482); conditions: Compound concentration 100.0 nM
[19] = target: Serine/threonine-protein kinase 10 (Homo sapiens) (UniProt O94804); conditions: Compound concentration 100.0 nM
[20] = target: TGF-beta receptor type-1 (Homo sapiens) (UniProt P36897); conditions: Compound concentration 100.0 nM
[21] = target: STE20-like serine/threonine-protein kinase (Homo sapiens) (UniProt Q9H2G2); conditions: Compound concentration 100.0 nM
[22] = tested on: Receptor-type tyrosine-protein kinase FLT3 (Homo sapiens), P36888 [UNDEFINED MUTATION]; conditions: Compound concentration 100.0 nM
[23] = target: Protein kinase C iota type (Homo sapiens) (UniProt P41743); conditions: Compound concentration 100.0 nM
[24] = target: Serine/threonine-protein kinase PLK1 (Homo sapiens) (UniProt P53350); conditions: Compound concentration 100.0 nM
[25] = target: Mitogen-activated protein kinase kinase kinase 10 (Homo sapiens) (UniProt Q02779); conditions: Compound concentration 100.0 nM
[26] = target: Serine/threonine-protein kinase MARK1 (Homo sapiens) (UniProt Q9P0L2); conditions: Compound concentration 100.0 nM
D(1B) dopamine receptor = D(1B) dopamine receptor (Homo sapiens, UniProt P21918); experiment: GPCRScan assay: inhibition of D5; parameters: radioligand conc. used [nm] 2.0 – 3.0, parental cells HEKT
[27] = target: ALK tyrosine kinase receptor (Homo sapiens) (UniProt Q9UM73); conditions: Compound concentration 100.0 nM
[28] = target: Serine/threonine-protein kinase Nek6 (Homo sapiens) (UniProt Q9HC98); conditions: Compound concentration 100.0 nM
[29] = target: Serine/threonine-protein kinase PAK 5 (Homo sapiens) (UniProt Q9P286); conditions: Compound concentration 100.0 nM
[30] = target: Muscarinic acetylcholine receptor M3 (Homo sapiens) (UniProt P20309); conditions: Compound concentration 10.0 uM
[31] = target: Ribosomal protein S6 kinase alpha-4 (Homo sapiens) (UniProt O75676); conditions: Compound concentration 100.0 nM
[32] = target: 3-phosphoinositide-dependent protein kinase 1 (Homo sapiens) (UniProt O15530); conditions: Compound concentration 100.0 nM
[33] = target: Glycogen synthase kinase-3 alpha (Homo sapiens) (UniProt P49840); conditions: Compound concentration 100.0 nM
[34] = target: Homeodomain-interacting protein kinase 2 (Homo sapiens) (UniProt Q9H2X6); conditions: Compound concentration 100.0 nM
[35] = target: Dual specificity mitogen-activated protein kinase kinase 5 (Homo sapiens) (UniProt Q13163); conditions: Compound concentration 100.0 nM
[36] = target: Calcium/calmodulin-dependent protein kinase type II subunit gamma (Homo sapiens) (UniProt Q13555); conditions: Compound concentration 100.0 nM
[37] = target: Mitogen-activated protein kinase kinase kinase 19 (Homo sapiens) (UniProt Q56UN5); conditions: Compound concentration 100.0 nM
[38] = target: Cyclin-dependent kinase 13 (Homo sapiens) (UniProt Q14004); conditions: Compound concentration 100.0 nM

Dual specificity mitogen-activated protein kinase kinase 5 (Homo sapiens), sequence (Q13163 whole entry): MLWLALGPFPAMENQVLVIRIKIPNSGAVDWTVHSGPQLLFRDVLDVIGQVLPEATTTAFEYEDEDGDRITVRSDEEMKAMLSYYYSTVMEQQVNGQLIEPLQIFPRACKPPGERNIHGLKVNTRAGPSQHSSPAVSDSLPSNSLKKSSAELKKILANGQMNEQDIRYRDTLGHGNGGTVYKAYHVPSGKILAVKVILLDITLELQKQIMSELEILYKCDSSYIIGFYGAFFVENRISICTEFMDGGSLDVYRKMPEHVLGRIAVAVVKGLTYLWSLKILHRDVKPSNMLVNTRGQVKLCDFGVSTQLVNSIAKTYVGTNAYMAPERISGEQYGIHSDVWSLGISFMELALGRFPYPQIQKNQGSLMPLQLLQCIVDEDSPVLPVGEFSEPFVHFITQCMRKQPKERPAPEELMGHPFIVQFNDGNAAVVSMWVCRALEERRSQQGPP
Muscarinic acetylcholine receptor M3 (Homo sapiens), sequence (P20309 whole entry, looked up): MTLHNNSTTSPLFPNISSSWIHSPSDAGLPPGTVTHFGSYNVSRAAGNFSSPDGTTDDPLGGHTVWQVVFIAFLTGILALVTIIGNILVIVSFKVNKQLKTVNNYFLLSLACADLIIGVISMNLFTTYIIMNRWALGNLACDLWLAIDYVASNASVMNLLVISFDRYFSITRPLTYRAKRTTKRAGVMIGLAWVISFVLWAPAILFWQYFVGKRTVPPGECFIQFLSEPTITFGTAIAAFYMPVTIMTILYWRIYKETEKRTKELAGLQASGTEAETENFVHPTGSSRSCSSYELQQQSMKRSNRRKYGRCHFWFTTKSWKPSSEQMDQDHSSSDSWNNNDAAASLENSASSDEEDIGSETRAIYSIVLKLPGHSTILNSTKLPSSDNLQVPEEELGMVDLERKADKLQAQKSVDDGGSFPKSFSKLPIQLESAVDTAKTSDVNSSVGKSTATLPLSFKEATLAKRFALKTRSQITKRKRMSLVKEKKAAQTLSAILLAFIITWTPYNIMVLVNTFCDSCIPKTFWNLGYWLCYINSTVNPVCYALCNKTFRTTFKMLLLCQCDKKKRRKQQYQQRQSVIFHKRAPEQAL
Ephrin type-B receptor 2 (Homo sapiens), sequence (P29323 whole entry): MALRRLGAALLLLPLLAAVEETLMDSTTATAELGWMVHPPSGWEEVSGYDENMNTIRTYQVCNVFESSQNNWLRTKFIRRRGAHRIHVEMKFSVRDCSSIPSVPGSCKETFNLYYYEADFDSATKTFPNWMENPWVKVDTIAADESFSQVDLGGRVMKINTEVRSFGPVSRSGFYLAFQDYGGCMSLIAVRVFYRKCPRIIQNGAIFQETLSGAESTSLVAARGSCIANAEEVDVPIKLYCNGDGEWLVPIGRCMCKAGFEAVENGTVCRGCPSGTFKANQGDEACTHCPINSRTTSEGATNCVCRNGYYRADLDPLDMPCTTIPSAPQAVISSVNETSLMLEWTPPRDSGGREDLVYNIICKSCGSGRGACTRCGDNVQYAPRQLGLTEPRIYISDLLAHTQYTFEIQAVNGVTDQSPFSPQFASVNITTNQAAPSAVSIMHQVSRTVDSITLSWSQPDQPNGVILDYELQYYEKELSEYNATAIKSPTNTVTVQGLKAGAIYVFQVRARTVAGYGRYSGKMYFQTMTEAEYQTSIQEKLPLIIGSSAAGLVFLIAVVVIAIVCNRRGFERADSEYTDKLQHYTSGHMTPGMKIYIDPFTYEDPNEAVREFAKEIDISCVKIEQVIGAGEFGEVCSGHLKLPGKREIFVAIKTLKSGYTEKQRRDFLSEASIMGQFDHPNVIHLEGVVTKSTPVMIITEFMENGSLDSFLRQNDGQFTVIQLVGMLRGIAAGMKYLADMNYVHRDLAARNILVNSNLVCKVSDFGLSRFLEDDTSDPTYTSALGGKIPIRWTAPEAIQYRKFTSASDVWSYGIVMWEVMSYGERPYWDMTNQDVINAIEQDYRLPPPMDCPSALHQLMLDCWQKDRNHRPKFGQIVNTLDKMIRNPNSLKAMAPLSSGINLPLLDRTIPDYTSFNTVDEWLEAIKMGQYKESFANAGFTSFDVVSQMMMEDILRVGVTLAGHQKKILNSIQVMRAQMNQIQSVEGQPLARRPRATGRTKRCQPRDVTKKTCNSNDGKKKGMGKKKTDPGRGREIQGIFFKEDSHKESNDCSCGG
Cyclin-dependent kinase 4 (Homo sapiens), sequence (P11802 whole entry): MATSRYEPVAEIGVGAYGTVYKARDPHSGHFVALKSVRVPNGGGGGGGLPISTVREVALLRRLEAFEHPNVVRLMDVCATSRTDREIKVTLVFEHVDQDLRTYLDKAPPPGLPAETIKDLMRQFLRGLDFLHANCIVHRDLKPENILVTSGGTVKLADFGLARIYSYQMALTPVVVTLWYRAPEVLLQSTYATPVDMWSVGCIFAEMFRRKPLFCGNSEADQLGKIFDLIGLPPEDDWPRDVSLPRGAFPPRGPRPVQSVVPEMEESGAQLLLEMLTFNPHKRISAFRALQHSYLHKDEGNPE
Calcium/calmodulin-dependent protein kinase type II subunit gamma (Homo sapiens), sequence (Q13555 whole entry): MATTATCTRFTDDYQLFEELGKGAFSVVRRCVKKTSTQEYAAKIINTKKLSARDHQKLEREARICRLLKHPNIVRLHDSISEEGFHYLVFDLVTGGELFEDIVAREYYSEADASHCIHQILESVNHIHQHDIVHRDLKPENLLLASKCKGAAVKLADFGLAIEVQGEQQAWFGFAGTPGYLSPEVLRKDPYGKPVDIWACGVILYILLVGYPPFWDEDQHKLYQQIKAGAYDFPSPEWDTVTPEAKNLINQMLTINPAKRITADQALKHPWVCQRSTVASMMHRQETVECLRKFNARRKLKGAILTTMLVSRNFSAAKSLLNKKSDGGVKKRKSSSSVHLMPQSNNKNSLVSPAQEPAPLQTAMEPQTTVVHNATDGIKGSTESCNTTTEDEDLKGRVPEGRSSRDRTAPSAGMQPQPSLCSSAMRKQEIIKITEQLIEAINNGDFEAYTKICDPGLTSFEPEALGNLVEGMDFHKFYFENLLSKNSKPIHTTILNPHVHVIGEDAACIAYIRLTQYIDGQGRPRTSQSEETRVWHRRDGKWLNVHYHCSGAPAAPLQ
Receptor-type tyrosine-protein kinase FLT3 (Homo sapiens), P36888 [UNDEFINED MUTATION], sequence (P36888 whole entry, looked up, change not shown): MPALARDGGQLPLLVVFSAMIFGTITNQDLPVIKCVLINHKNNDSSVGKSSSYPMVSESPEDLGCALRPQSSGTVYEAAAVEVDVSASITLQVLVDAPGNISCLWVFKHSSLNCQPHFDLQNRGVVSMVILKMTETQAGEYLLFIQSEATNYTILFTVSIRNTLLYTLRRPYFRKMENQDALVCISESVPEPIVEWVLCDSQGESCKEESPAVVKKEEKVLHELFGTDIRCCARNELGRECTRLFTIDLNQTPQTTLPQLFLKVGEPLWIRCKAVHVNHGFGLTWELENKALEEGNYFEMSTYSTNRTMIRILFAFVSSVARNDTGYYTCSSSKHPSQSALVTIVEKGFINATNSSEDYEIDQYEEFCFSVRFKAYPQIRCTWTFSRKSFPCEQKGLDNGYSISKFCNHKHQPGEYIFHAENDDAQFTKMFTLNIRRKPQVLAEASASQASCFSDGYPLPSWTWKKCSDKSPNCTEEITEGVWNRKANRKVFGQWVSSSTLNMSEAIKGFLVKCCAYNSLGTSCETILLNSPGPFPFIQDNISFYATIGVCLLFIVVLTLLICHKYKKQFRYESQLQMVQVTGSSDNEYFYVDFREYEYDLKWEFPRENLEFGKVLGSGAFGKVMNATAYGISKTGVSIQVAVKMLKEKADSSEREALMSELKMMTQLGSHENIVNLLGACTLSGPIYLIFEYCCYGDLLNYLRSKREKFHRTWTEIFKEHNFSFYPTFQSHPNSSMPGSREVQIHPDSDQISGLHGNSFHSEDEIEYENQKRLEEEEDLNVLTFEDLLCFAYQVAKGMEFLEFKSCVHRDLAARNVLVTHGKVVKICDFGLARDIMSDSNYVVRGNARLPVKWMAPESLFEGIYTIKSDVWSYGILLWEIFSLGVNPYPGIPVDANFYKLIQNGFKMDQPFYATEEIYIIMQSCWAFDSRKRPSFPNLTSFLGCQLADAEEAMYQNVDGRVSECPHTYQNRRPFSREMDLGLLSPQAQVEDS
Serine/threonine-protein kinase PAK 5 (Homo sapiens), sequence (Q9P286 whole entry, looked up): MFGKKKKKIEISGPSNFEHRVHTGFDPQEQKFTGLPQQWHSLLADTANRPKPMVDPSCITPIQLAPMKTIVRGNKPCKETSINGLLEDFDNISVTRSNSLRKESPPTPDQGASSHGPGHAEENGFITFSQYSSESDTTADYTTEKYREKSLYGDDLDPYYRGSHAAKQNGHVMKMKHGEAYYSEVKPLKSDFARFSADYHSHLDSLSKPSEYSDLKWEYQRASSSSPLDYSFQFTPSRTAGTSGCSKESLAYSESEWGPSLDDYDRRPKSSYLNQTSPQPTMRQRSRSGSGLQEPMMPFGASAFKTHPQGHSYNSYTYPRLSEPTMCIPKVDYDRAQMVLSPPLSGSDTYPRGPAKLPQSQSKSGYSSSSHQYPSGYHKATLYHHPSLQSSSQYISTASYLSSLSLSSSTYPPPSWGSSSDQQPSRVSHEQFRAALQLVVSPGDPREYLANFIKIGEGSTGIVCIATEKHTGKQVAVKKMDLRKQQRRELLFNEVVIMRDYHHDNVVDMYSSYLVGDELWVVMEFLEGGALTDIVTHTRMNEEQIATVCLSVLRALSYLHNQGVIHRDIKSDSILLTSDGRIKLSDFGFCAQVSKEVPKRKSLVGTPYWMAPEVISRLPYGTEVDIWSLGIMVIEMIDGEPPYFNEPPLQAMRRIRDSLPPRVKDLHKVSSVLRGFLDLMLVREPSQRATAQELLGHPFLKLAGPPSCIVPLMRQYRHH
Mitogen-activated protein kinase 1 (Homo sapiens), sequence (P28482 whole entry): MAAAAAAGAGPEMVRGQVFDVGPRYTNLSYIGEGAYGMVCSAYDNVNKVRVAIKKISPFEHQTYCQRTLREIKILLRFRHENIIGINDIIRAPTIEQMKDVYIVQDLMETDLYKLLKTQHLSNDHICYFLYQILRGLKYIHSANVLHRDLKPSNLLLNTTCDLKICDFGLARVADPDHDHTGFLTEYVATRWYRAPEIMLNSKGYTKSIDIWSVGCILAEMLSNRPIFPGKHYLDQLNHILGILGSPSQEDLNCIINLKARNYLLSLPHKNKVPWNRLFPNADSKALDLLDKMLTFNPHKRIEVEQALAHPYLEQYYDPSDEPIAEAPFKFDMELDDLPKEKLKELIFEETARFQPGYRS

SMILES	inhibition [1] [%]	residual activity [2] [%]	residual activity [3] [%]	residual activity [4] [%]	residual activity [5] [%]	residual activity [6] [%]	residual activity [7] [%]	residual activity [8] [%]	residual activity [9] [%]	residual activity [10] [%]	residual activity [11] [%]	residual activity [12] [%]	residual activity [13] [%]	residual activity [14] [%]	residual activity [15] [%]	residual activity [16] [%]	residual activity [17] [%]	residual activity [18] [%]	residual activity [19] [%]	residual activity [20] [%]	also measured
Cn1nc(C(=O)NCc2ccc(C(=O)O)cc2)cc1-c1ccc2[nH]ccc2c1 [BI 4395]	5.3	83	100	74	69	88	100	97	91	77	92	91	90	88	63	71	76	94	80	97	residual activity [21]: 65%; residual activity [22]: 66%; residual activity [23]: 80%; residual activity [24]: 95%; residual activity [25]: 100%; residual activity [26]: 100%; Ki (D(1B) dopamine receptor): 10 µM; residual activity [27]: 80%; residual activity [28]: 91%; residual activity [29]: 62%; inhibition [30]: -0.66%; residual activity [31]: 73%; residual activity [32]: 100%; residual activity [33]: 61%; residual activity [34]: 97%; residual activity [35]: 63%; residual activity [36]: 83%; residual activity [37]: 85%; residual activity [38]: 72%
CCOC(=O)c1cc2cc(-c3cc(C(=O)NCc4ccc(C(=O)O)cc4)nn3C)ccc2[nH]1 [BI 4394]	-0.14	90	96	97	71	100	100	100	90	90	75	100	100	74	100	91	91	99	100	100	residual activity [21]: 98%; residual activity [22]: 72%; residual activity [23]: 87%; residual activity [24]: 90%; residual activity [25]: 70%; residual activity [26]: 76%; Ki (D(1B) dopamine receptor): 10 µM; residual activity [27]: 98%; residual activity [28]: 95%; residual activity [29]: 95%; inhibition [30]: 4.89%; residual activity [31]: 88%; residual activity [32]: 92%; residual activity [33]: 100%; residual activity [34]: 82%; residual activity [35]: 82%; residual activity [36]: 100%; residual activity [37]: 75%; residual activity [38]: 83%
